Patent EP0115472A2, “Pyrrolidinon derivatives and process for their preparation” (CIBA-GEIGY AG, priority 1983, dated 1984)

Tested on: Mäusen
Test: step down passive avoidance test (improvement of memory performance)
Assay type: in vivo, Mäuse
Details: Mus musculus, ip; mice, i.p. within 10 s after foot shock; retest after 24 h; compared with solvent controls; read-out: Dosis, bei der sich eine Verbesserung der Gedächtnisleistung zeigen lässt
Excerpt: Zur unmittelbaren Messung der Verbesserung der Gedächtnisleistung wird ein anderer passiver Vermeidungstest (step down passive avoidance test, Psychopharmacol. 63, 297-300 [1979]) verwendet: • Die Testvorrichtung besteht aus einer mit Tageslicht normal beleuchteten Box (50 x 50 x 50 cm) mit einem elektrisch leitenden Gitterrost, dessen Gitterstäbe (6 mm Durchmesser) in einem Abstand von jeweils 13 mm angeordnet sind. In der Mitte des Gitterrostes ist eine hölzerne Plattform (10 mm Höhe, 67 mm Durchmesser) angebracht, welche von einer Plastikröhre (20 cm hoch, 68 mm innerer Durchmesser) umgeben ist. Zur Durchführung des Trainings werden Gruppen von jeweils 30 männlichen Mäusen mit einem Körpergewicht von 20-22g verwendet, indem jeweils ein Tier auf die von der Plastikröhre umgebene Plattform gesetzt, nach 10 Sekunden die Plastikröhre entfernt und die Zeitdauer gemessen wird, welche das Tier zum Hinabsteigen und Berühren des Gitterrostes mit allen 4 Pfoten benötigt. Wenn alle 4 Pfoten den Gitterrost berühren, wird ein Fussschock (1 mA, 50 Hz, 1 Sekunde) verabreicht. Innerhalb von 10 Sekunden nach Verabreichung des Fussschocks werden die Testsubstanzen in Dosen von 3 mg/kg, 10 mg/kg und 30 mg/kg (für jede Dosis werden 30 Mäuse verwendet) als Lösung in physiologischer NaCl-Lösung oder deren Lösungsmittel (physiologische Natriumchloridlösung = Placebo) intraperitoneal verabreicht. […]

Question: Which minimal effective dose does the source give for `NC(=O)CNC(=O)CNC(=O)CN1CCCC1=O` [N-[(2-Oxo-1-pyrrolidinyl)-acetyl]-glycyl-glycinamid] here?
Answer: 10 mg/kg
